In patent publication US7420031B2, “Intracellular delivery of small molecules, proteins, and nucleic acids” (Lonza Walkersville, Inc., priority 2003, dated 2008):
Where a SMILES comes first, the peptide text is derived from it. Where no end group is shown, it is not given here. The star is where a group is joined. Biotin = O=C1N[C@H]2[C@H](CS[C@H]2CCCCC(=O)*)N1

How the values were obtained:
NIH 3T3 cells [1] = details: PTD without cargo moiety, 0-1000 nM (nanomolar range), 48 hours
Procedure: PTDs (SEQ ID NOS:7 and 10), in the absence of a cargo moiety, were added to NIH 3T3 cultures at final concentrations ranging from 0-1000 nM to determine if the PTDs were cytotoxic. NIH 3T3 cells were seeded and incubated overnight, and the peptides were added to the cultures. The cells were incubated for 48 hours, and cell viability was determined using an Alamar blue assay.

[2] = Mi et al., Mol. Ther., 2:339-347, 2000; cited from earlier work
293 HEK cells = test: PTD-mediated transport of streptavidin-β-galactosidase into 293 HEK cells (lysate absorbance at 405 nm); type: cell-based; details: 50 nM complex with streptavidin-β-galactosidase, 30 minutes at 37° C.
Procedure: To determine the effect of biotin location on transduction efficiency, biotin was added to either the amino terminus or the carboxy terminus of three PTDs. A (Gly)3 linker was added to the amino terminus for N-terminal biotinylated peptides. For C-terminal biotinylation, the last glycine in the C-terminal linker was replaced by lysine. The side chain of lysine was used for the attachment of the biotin group. A peptide with negligible transduction activity (Mi et al., Mol. Ther., 2:339-347, 2000) (SEQ ID NO:6) was used as a negative control. PTDs and β-galactosidase were complexed together with a streptavidin-biotin bridge.
To test for transduction efficiency, 293 HEK cells were seeded into a 96-well plate at approximately 4500 cells/well and incubated overnight. To prepare peptide complexes, equimolar concentrations of biotinylated PTD and streptavidin-crosslinked β-galactosidase were mixed and diluted in cell culture medium. The mixtures were incubated for 30 minutes at 37° C. to allow formation of complexes. Each complex was added to a final concentration of 50 nM and incubated for 30 minutes at 37° C. To assay for β-galactosidase activity, the cells were washed 3 times with PBS and were lysed with 100 μl of assay reagent (Pierce). […] The absorbance at 405 nm was measured on a Wallac Victor spectroluminometer.

human dermal fibroblasts = test: Histochemical staining for β-galactosidase in cells transduced with PTD complex; type: cell-based; details: 50 nM complex with streptavidin-β-galactosidase, 1 hour at 37° C., light microscopy
Procedure: To determine the efficiency of transduction based on the percentage of cells that receive the reporter protein, cells were assayed by histochemical staining for the reporter protein.
HUVEC and human dermal fibroblast cells were each seeded at 40,000 per well of a 24-well plate and incubated overnight. PTD complexes (SEQ ID NO:7-streptavidin-β-galactosidase or SEQ ID NO:6-streptavidin-β-galactosidase) were added to the wells at a final concentration of 50 nM and incubated for 1 hour at 37° C. The cells were washed 3 times in PBS, fixed, and stained for β-galactosidase using a β-galactosidase staining set (Roche) according to the manufacturer's instructions. Following development of β-galactosidase activity, the cells were washed with PBS and visualized by light microscopy.

NIH 3T3 cells [3] = details: 20 nM complex with streptavidin-linked β-galactosidase, 1 hour at 37° C.
Procedure: To determine the intracellular location of the complex, cells were immunostained for streptavidin. NIH 3T3 cells were seeded into 24-well tissue culture plates and incubated overnight. The cells were treated with 20 nM PTD-cargo moiety complex comprising the polypeptide sequence shown in SEQ ID NO:14 and streptavidin-linked β-galactosidase for 1 hour at 37° C. The cells were washed 3 times with PBS, and non-specific binding was blocked by a 30 minute incubation with normal goat serum at room temperature. Mouse anti-streptavidin monoclonal antibody (Monosan, Catalog No. 5043) was diluted to 1 μg/ml with PBS containing 20% normal goat serum. The diluted monoclonal antibody was added to the cells, and the cells were incubated for 1 hour at room temperature.
The cells were washed 3 times with PBS and a secondary Alexa Fluor 568 conjugated goat anti-mouse IgG (Molecular Probes, Catalog No. A-11019) was diluted 1:200 in PBS with 20% normal goat serum. Following a 30 minute incubation at room temperature, the cells were washed 3 times with PBS and visualized by fluorescent microscopy.

NIH 3T3 cells [4] = details: 20 nM complex with streptavidin-β-galactosidase, 1 hour at 37° C.
Procedure: The transport activities of PTDs were compared to determine if introduction of a nuclear localization signal affect translocation of a PTD-cargo moiety complex. The cargo moiety was streptavidin-linked β-galactosidase. The cargo moiety was streptavidin-linked β-galactosidase. The peptides differed by the position of the nuclear localization signal. The nuclear localization signal was located on the amino terminus (down-stream of a lysine linker) or the carboxy terminus. NIH 3T3 cells were seeded as described above. Each PTD complex was added to a final concentration of 20 nM, and the cells were incubated for 1 hour at 37° C. Following incubation, the cells were washed 3 times in PBS and assayed for nuclear localization of β-galactosidase. β-galactosidase activity was measured at 405 nm in a colorimetric assay.
Peptides containing two nuclear localization signals were tested to study the role of the multiple nuclear localization signals on peptide transport. NIH 3T3 cells were seeded as described above. A PTD-β-galactosidase complex was added to a final concentration of 20 nM, and the cells were incubated for 1 hour at 37° C. Following incubation, the cells were washed 3 times in PBS and assayed for nuclear localization of β-galactosidase.

NIH 3T3 cells [5] = test: PTD-β-galactosidase transduction into NIH 3T3 cells (lysate absorbance at 405 nm); type: cell-based; details: general statement in description
Procedure: N-terminally biotinylated direct and inverted isomers were compared to determine the transduction efficiency of inverted isomers of PTDs. PTDs and β-galactosidase were complexed together with a streptavidin-biotin bridge. NIH 3T3 cells were seeded into a 96-well plate and incubated as described above. The PTD-β-galactosidase complexes were formed (as described in Example 1) and added to a final concentration of 12.5 nM. […] The lysis reaction was stopped and the absorbance at 405 nm was measured. The transduction activity of inverted isomers is stronger than the transduction activity of direct PTDs.
The activities of 2 PTDs were compared to determine if the introduction of a lysine residue juxtaposed to the biotin moiety affects transduction activity. The pairs of peptides differed by a glycine to lysine substitution within the biotin peptide linker. PTDs and β-galactosidase were complexed together with a streptavidin-biotin bridge. NIH 3T3 cells were seeded as described above. […] The lysis reaction was stopped, and the absorbance at 405 nm was measured. The presence of a lysine residue juxtaposed to the biotin caused about a two-fold enhancement in transduction activity.
To further study the role of the lysine residue located in the biotin linker, the indirect PTDs and the direct PTDs with a lysine residue in the linker were compared. […]

plasma membrane = details: Wender et al., Proc. Natl. Acad. Sci USA 97:13003-13008, 2000; cited from earlier work

## N=C(N)NCCC[C@H](NC(=O)CNC(=O)[C@@H](N)Cc1ccc(O)cc1)C(=O)N[C@@H](CCCCN)C(=O)N[C@@H](CCCCN)C(=O)N[C@@H](CCCNC(=N)N)C(=O)N[C@@H](CCCNC(=N)N)C(=O)N[C@@H](CCC(N)=O)C(=O)N[C@@H](CCCNC(=N)N)C(=O)N[C@@H](CCCNC(=N)N)C(=O)N[C@@H](CCCNC(=N)N)C(=O)NCC(=O)NCC(=O)N[C@@H](CCCCNC(=O)CCCC[C@@H]1SC[C@@H]2NC(=O)N[C@@H]21)C(=O)O [SEQ ID NO:8, Tyr-Gly-Arg-Lys-Lys-Arg-Arg-Gln-Arg-Arg-Arg-Gly-Gly-Lys-Biotin]
NIH 3T3 cells [1]
  effect on cell growth / cell viability: did not inhibit cell growth

## CSCC[C@H](NC(=O)[C@H](CC(C)C)NC(=O)[C@H](CCCCN)NC(=O)[C@H](CO)NC(=O)[C@@H](NC(=O)[C@H](CCCNC(=N)N)NC(=O)[C@H](CCCNC(=N)N)NC(=O)[C@H](CCC(N)=O)NC(=O)[C@H](CCCNC(=N)N)NC(=O)[C@@H](N)CCCNC(=N)N)[C@@H](C)O)C(=O)N[C@@H](CCCCN)C(=O)N[C@@H](CCCNC(=N)N)C(=O)NCC(=O)NCC(=O)N[C@@H](CCCCNC(=O)CCCC[C@@H]1SC[C@@H]2NC(=O)N[C@@H]21)C(=O)O [SEQ ID NO:11, Arg-Arg-Gln-Arg-Arg-Thr-Ser-Lys-Leu-Met-Lys-Arg-Gly-Gly-Lys-Biotin] (H-RRQRRTSKLMKRGGK(Biotin)-OH)
NIH 3T3 cells [1]
  effect on cell growth / cell viability: did not inhibit cell growth

## Biotin-GGARPLEHGSDKAT [SEQ ID NO:6]
[2]
  transduction activity: negligible

## Biotin-GGGYARAAARQARA [SEQ ID NO:9]
293 HEK cells
  function as a PTD (amount of β-galactosidase in the cell lysate vs negative control SEQ ID NO:6): did not function as a PTD

## Biotin-Gly-Gly-Gly-Tyr-Gly-Arg-Lys-Lys-Arg-Arg-Gln-Arg-Arg-Arg [SEQ ID NO:7]
Human dermal fibroblasts
  β-galactosidase reporter protein staining of cells: positive

## Biotin-KGGRKMLKSTRRQRR [SEQ ID NO:14]
NIH 3T3 cells [3]
  intracellular location of the complex: localized to the cytoplasm

## Biotin-KGGRKMLKSTRRQRRKKKRKV [SEQ ID NO:19]
NIH 3T3 cells [4]
  translocation of the complex, effect of nuclear localization signal and its position: functioned much better

## RKMLKSTRRQRR [SEQ ID NO:1]
NIH 3T3 cells [5]
  ability to function as a PTD relative to tat (SEQ ID NO:24) and WO 01/15511 peptide (SEQ ID NO:25): more efficiently

## SEQ ID NO:23: a reverse isomer of a tat-derived peptide (reverse tat), Wender et al. (RRRQRRKKRGY; Human immunodeficiency virus)
Plasma membrane
  efficiency of crossing the plasma membrane relative to tat (SEQ ID NO:24): about three times
